This note sets out measurements from US8278469B2, “17-hydroxy-17-pentafluoroethyl-estra-4,9(10)-dien-11-aryl derivatives, method of production thereof and use thereof for the treatment of diseases” (Bayer Pharma Aktiengesellschaft, priority 2009, dated 2012).

For series [1], the target named is T1, human progesterone receptor A (PR-A) (Homo sapiens, UniProt P06401).
T1 construct: expressed in transfected cells; host or cells: SK-N-MC human neuroblastoma cells, stably transfected with pRChPR-A-neo and pMMTV-LUC
T1 sequence (P06401 1-769 isoform P06401-2): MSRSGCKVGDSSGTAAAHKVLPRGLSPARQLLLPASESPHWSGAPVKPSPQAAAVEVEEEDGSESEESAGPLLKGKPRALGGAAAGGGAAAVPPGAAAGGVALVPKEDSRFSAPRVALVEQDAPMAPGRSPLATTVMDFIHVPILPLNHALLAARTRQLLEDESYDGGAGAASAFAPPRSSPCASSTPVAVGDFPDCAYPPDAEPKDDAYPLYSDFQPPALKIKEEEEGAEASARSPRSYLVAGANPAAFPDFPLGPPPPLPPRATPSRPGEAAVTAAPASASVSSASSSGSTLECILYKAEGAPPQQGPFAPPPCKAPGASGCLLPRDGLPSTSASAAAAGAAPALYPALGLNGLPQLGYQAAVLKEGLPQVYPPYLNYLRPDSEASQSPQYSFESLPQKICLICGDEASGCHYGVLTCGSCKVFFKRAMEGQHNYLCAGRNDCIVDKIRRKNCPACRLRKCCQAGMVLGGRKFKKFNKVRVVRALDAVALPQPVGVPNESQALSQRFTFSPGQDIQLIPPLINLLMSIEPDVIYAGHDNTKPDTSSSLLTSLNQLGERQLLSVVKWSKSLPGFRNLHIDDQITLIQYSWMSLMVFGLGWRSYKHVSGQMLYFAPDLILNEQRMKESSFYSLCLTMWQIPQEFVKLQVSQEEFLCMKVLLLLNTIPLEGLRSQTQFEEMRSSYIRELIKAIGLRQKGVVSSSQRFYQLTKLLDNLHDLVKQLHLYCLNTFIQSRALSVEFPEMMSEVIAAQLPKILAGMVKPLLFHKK
Kind of series: Progesterone receptor-antagonistic action in stable transfectants of SK-N-MC cells with human PR-A and MTV-LUC reporter. It counts as cell-based. How it is done:
Progesterone Receptor-Antagonistic Action in Stable Transfectants of Human Neuroblastoma Cells (SK-N-MC Cells) with the Human Progesterone A or Progesterone B Receptor and an MTV-LUC Reporter Construct
SK-N-MC cells (human neuroblastoma cells), which have been stably transfected with plasmids, which express the human progesterone receptor B (pRChPR-B-neo) or the human progesterone receptor A (pRChPR-A-neo) and a reporter construct (pMMTV-LUC), were incubated for 24 hours either in the absence (negative control) or in the presence of increasing amounts of the respective test compound (0.01 nmol/l, 0.1 nmol/l, 1 nmol/l, 10 nmol/l, 100 nmol/l and 1 μmol/l), in order to determine the agonistic efficacy. As positive control of reporter gene induction, the cells were treated with the synthetic gestagen promegestone (0.01 nmol/l, 0.1 nmol/l, 1 nmol/l, 10 nmol/l, 100 nmol/l and 1 μmol/l). For determination of the antagonistic activity, the cells were treated with 0.1 nmol/l promegestone and additionally with increasing amounts of the respective test compound (0.01 nmol/l, 0.1 nmol/l, 1 nmol/l, 10 nmol/l, 100 nmol/l and 1 μmol/l). The activity of the LUC reporter gene (LUC=luciferase) was determined in the cell lysates and was measured as RLU (relative light units). All measured values are given as percentage efficacy and as EC50 or IC50 concentrations.
11β-(4-Acetylphenyl)-20,20,21,21,21-pentafluoro-17-hydroxy-19-nor-17α-pregna-4,9-dien-3-one and 20,20,21,21,21-pentafluoro-17-hydroxy-11β-[4-(hydroxyacetyl)phenyl]-19-nor-17α-pregna-4,9-dien-3-one, very potent and therefore preferred examples from WO98/34947 and WO2008/058767, were tested as comparative compounds along with the test compound.

The subject of the next series is rodents and non-rodents. The note with it: in vivo.
A short description of series [2]: Permeation in Caco-2 cells. Format: in vitro ADME. The note with it: human, Caco-2, 2 μM, 37° C., apical to basolateral. How it is done:
Permeation of (11β,17β)-17-hydroxy-11-[4-(methylsulphonyl)phenyl]-17-(pentafluoroethyl)estra-4,9-dien-3-one in Caco-2 Cells
For the permeation studies, Caco-2 cells with a cell count of 300000 cells/ml were cultivated on Transwell Clear filter inserts (polyester; pore size 0.4 μm) in 12-well cell culture plates for at least 14 days in cell culture medium (1.5 ml) at 37° C., 5% CO2 and 95% air humidity. Before the test, to verify the “compactness” of the cell monolayer, the transepithelial resistance (TEER value) was determined, which must be greater than 300 Ωcm^2. Then the cell culture medium was replaced with hot transport buffer (0.5 ml apical, 1.5 ml basolateral) and the cells were equilibrated in it for 5 min. The permeability test was performed in duplicate at a substance concentration of 2 μM. At the start of the experiment, 100 μl (Ap0 min) was taken from the apical compartment and 100 μl of ice-cold stopping solution was added to it immediately. […] After further dilution of the samples with 4 times the volume of stopping solution/transport buffer (1+1) they were sedimented overnight at −20° C. and the supernatant was analysed by LCMS/MS. The Papp value of the substances was calculated from the following formula. […]
Background: Caco-2 monolayers are a common model of the intestinal barrier.

On to `C[C@]12C[C@H](c3ccc(S(C)(=O)=O)cc3)C3=C4CCC(=O)C=C4CC[C@H]3[C@@H]1CC[C@@]2(O)C(F)(F)C(F)(F)F` [Example 4, (11β,17β)-17-Hydroxy-11-[4-(methylsulphonyl)phenyl]-17-(pentafluoroethyl)estra-4,9-dien-3-one], for which the Emax in series [1] (SK-N-MC, 24 h, read-out: Progesterone receptor A (PR-A) Efficacy) is 100%. For the same compound, the IC50 in series [1] (antagonistic activity against 0.1 nmol/l promegestone, SK-N-MC cells, 24 hours, LUC reporter, read-out: Progesterone receptor A (PR-A) Potency IC50) came to 0.096 nM. Further, the “Safety profile (in acute and chronic tests)” value in the series on rodents and non-rodents is listed as “especially favourable safety profile”. This compound displayed a Papp A→B at 90 min, 2 μM in series [2] of 10.4 ×10⁻⁶ cm/s.

The IC50 is the concentration that gives 50% inhibition. By Papp A→B is commonly meant how fast a substance crosses the layer from the apical side. Read a low Papp A→B as poor permeation.
